Target: FXR (Homo sapiens (Human), UniProt Q96RI1)
Test: transient human FXR/Gal4-luciferase reporter assay
Assay type: cell-based
Details: Gal4-hFXR LBD fusion in HEK293 reporter cells; relative to 8 μM GW-4064
Protocol: The exemplified compounds of the present invention were tested in the transient human FXR/Gal4-luciferase reporter assay, and assay results were described in the EXAMPLES section hereinbefore.
A Gal4-hFXR fusion construct reporter system was used as the primary assay to characterize compound activity. A construct including 5 copies of the Gal4 promoter response element upstream of a firefly luciferase reporter cDNA was stably expressed in HEK293 cells. This reporter cell line was maintained in Dulbecco's Modified Eagle's medium (DMEM; Gibco) supplemented with 1% penicillin-streptomycin (P/S) solution, 500 μg/ml Zeocin and 10% charcoal/dextran-treated fetal bovine serum (cs-FBS) at 37° C. in a humidified 5% CO2 atmosphere. Another plasmid was constructed in which the human cytomegalovirus promoter in the pcDNA3.1 vector directs the expression of the cDNA encoding a fusion protein comprised of the DNA binding domain from the Gal4 transcription factor fused to the ligand binding domain from human FXR.
The day prior to transfection, the reporter cells in culture are detached from the plate with trypsin and plated into a T75 flask at a sufficient density to achieve approximately 90% confluence the next morning. The transfection reagents are prepared by separately diluting 25 μg of the pcDNA3.1-Gal4-FXR plasmid into 1.87 mL of Opti-MEM (Thermo-Fisher), and 40 μL of Lipofectamine 2000 (Thermo-Fisher) into 1.87 mL of Opti-MEM, and then adding the diluted DNA solution into the diluted Lipofectamine 2000 solution and incubating at room temperature for 15-20 minutes. The mixture is further diluted with 10 mL of a solution comprised of DMEM, 10% cs-FBS, and 1% P/S immediately prior to transferring to the cells. The maintenance culture media is aspirated from the cells and the final transfection mixture is added before the cells are incubated overnight at 37° C. in a humidified 5% CO2 atmosphere. This protocol can be scaled up, and the transiently transfected cells can be cryopreserved in an assay-ready format.
For compound testing, 100 nL of the compounds (serial dilutions in DMSO) are dispensed with an Echo acoustic dispenser (Labcyte) into the wells of a Corning/Costar clear bottom 384-well white plate. The transfected cells are harvested, counted, and diluted such that 10-25,000 cells in 25 μL are plated into each well of the 384-well compound assay plate. The compound-treated cells are incubated overnight at 37° C. in a humidified 5% CO2 atmosphere. The next morning 25 μL of Steady-Glo (Promega) are added to each well of the plate, the mixture is incubated for 15 min. with shaking, and luminescence is measured on an Envision (Perkin Elmer) plate reader. Background counts from cells treated with DMSO alone are subtracted from all raw counts, and the corrected values are converted to a percentage of the control response attained with 8 μM GW-4064.

FXR, sequence (Q96RI1 262-486): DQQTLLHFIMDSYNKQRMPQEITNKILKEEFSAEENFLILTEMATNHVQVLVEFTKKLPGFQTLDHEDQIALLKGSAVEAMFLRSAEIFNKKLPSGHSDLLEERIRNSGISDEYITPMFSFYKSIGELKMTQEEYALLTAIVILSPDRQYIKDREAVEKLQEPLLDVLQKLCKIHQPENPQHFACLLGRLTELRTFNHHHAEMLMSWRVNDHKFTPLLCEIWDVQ

| SMILES | EC50 |
| --- | --- |
| O=C(O)Cc1ccc(/C=C/C23CCC(OCc4c(-c5c(Cl)cncc5Cl)noc4C4CC4)(CC2)CC3)cn1 [Example 596] | 1.35 µM |
| O=C(O)c1cnc(N2CCC2)c(C#CC23CCC(OCc4c(-c5c(Cl)cncc5Cl)noc4C4CC4)(CC2)CC3)c1 [Example 562] | 0.021 µM |
| O=C(O)c1cc2ccc(C#CC34CCC(OCc5c(-c6c(Cl)cncc6Cl)noc5C5CC5)(CC3)CC4)cc2c(NC2CC2)n1 [Example 551] | 0.406 µM |
| Cn1c(C(=O)O)cc2c(/C=C/C34CCC(OCc5c(-c6c(Cl)cncc6Cl)noc5C5CC5)(CC3)CC4)cccc21 [Example 597] | 0.208 µM |
| COCCCOc1cc(C(=O)O)cc2ccc(C34CCC(OCc5c(-c6c(Cl)cncc6Cl)noc5C5CC5)(CC3)CC4)nc12 [Example 556] | 0.03 µM |
| CC(F)(F)c1cc(OCC23CCC(OCc4c(-c5c(Cl)cncc5Cl)noc4C4CC4)(CC2)CC3)cnc1C(=O)O [Example 536] | 0.055 µM |
| O=C(O)COCc1ccc(C#CC23CCC(OCc4c(-c5c(Cl)cncc5Cl)noc4C4CC4)(CC2)CC3)nc1 [Example 569] | 1.36 µM |
| O=C(O)Cc1ccc(C#CC23CCC(OCc4c(-c5c(Cl)cncc5Cl)noc4C4CC4)(CC2)CC3)c(C(F)(F)F)c1 [Example 565] | 0.115 µM |
| O=C(O)c1cc2ccc(C#CC34CCC(OCc5c(-c6c(Cl)cncc6Cl)noc5C5CC5)(CC3)CC4)cc2c(N2CCC2)n1 [Example 559] | 0.02 µM |
| O=C(O)Cc1ccc(/C=C/C23CCC(OCc4c(-c5c(Cl)cncc5Cl)noc4C4CC4)(CC2)CC3)c(F)c1 [Example 602] | 0.081 µM |
| O=C(O)c1cc2ccc(C#CC34CCC(OCc5c(-c6c(Cl)cncc6Cl)noc5C5CC5)(CC3)CC4)cc2c(OCCN2CCCC2)n1 [Example 574] | 1.37 µM |
| O=C(O)c1ccc2cc(/C=C/C34CCC(OCc5c(-c6c(Cl)cncc6Cl)noc5C5CC5)(CC3)CC4)ccc2n1 [Example 588] | 0.088 µM |
| O=C(O)COc1ccc(/C=C/C23CCC(OCc4c(-c5c(Cl)cncc5Cl)noc4C4CC4)(CC2)CC3)c(F)c1 [Example 608] | 1.03 µM |
| COc1ccc(/C=C/C23CCC(OCc4c(-c5c(Cl)cncc5Cl)noc4C4CC4)(CC2)CC3)cc1CCC(=O)O [Example 605] | 0.432 µM |
| O=C(O)c1cc(N2CCOCC2)c2nc(C34CCC(OCc5c(-c6c(Cl)cncc6Cl)noc5C5CC5)(CC3)CC4)ccc2c1 [Example 543] | 0.469 µM |
| CN(C)C1CN(c2nc(C(=O)O)cc3ccc(C#CC45CCC(OCc6c(-c7c(Cl)cncc7Cl)noc6C6CC6)(CC4)CC5)cc23)C1 [Example 572] | 0.061 µM |
| O=C(O)c1cc2ccc(/C=C/C34CCC(OCc5c(-c6c(Cl)cncc6Cl)noc5C5CC5)(CC3)CC4)cc2c(N2CC(CO)C2)n1 [Example 612] | 0.108 µM |
| O=C(O)c1ccc(/C=C/C23CCC(OCc4c(-c5c(Cl)cncc5Cl)noc4C4CC4)(CC2)CC3)cc1 [Example 625] | 0.35 µM |
| O=C(O)c1cc(OC2CCCC2)c2cc(/C=C/C34CCC(OCc5c(-c6c(Cl)cncc6Cl)noc5C5CC5)(CC3)CC4)ccc2n1 [Example 589] | 0.017 µM |
| Cc1c(OCC23CCC(OCc4c(-c5c(Cl)cncc5Cl)noc4C4CC4)(CC2)CC3)nn(C(C)C)c1C(=O)O [Example 531] | 0.138 µM |
| O=C(O)c1cc2ccc(/C=C/C34CCC(OCc5c(-c6c(Cl)cncc6Cl)noc5C5CC5)(CC3)CC4)cc2c(N2CC(F)C2)n1 [Example 611] | 0.022 µM |
| CCc1cc(OCC23CCC(OCc4c(-c5c(Cl)cncc5Cl)noc4C4CC4)(CC2)CC3)nn1CC(=O)O [Example 524] | 1.5 µM |
| Clc1cncc(Cl)c1-c1noc(C2CC2)c1COC12CCC(/C=C/c3ccc(Cc4nn[nH]n4)cc3)(CC1)CC2 [Example 619] | 0.213 µM |
| CC(C)Oc1cc(C(=O)O)nc2ccc(CCC34CCC(OCc5c(-c6c(Cl)cncc6Cl)noc5C5CC5)(CC3)CC4)cc12 [Example 586] | 0.03 µM |
| O=C(O)c1cnc(C#CC23CCC(OCc4c(-c5c(Cl)cncc5Cl)noc4C4CC4)(CC2)CC3)cn1 [Example 542] | 4.88 µM |
